Measurements from patent US20210060158A1, “AGONIST OF ARYL HYDROCARBON RECEPTOR FOR USE IN CANCER COMBINATION THERAPY” (INSTITUT CURIE, priority 2017, published 2021).

Columns and labels:
[1] = test system: peritoneal mo-DC; test: Peritoneal MHCII+CD226+ mo-DC in antibiotics-treated mice fed I3C-supplemented or control diet; assay type: in vivo, mouse; settings: I3C-supplemented versus control diet, peritoneal lavage
From the text: FIG. 4: AhR is involved in mo-DC differentiation in vivo in the mouse. (A-C) Ear skin from individual AhR^-/- mice or WT littermates (A-B), or C57BL/6 mice fed with an experimental diet supplemented or not with indole-3-carbinol […]) (C), was digested to prepare single-cell suspensions. After gating on live CD45^+CD3^-NK1.1^-CD19^-Ly6G^-CD24^- CD11b^+ cells, cells were separated into 5 subsets based on the expression of Ly6C, CD64, MHC II and CCR2. (A) One representative AhR^-/- and WT mouse is shown. (B-C) Proportions of monocytes, early mo-DC, mo-DC, MHC II^+ macrophages and resident MHC II^- macrophages among Ly6C^+ or CD64^+ cells. Each symbol represents an individual mouse (B n=9 in 2 independent experiments, C n=12 in 2 independent experiments).*p<0.05, **p<0.01. (D-E) Cells from the peritoneal lavage were analyzed by flow cytometry. After gating on live CD115^+CD11b^+ cells, cells were separated into MHCII^+CD226^+ cells and ICAM2^+MHCII^- cells. (D) Cell-sorted cells were analyzed after cytospin and Giemsa/May-Grünwald staining. Bar=10 μm. Representative of 2 independent experiments. […] To address whether the decrease of peritoneal mo-DC upon antibiotics treatment was AhR-dependent, we fed antibiotics-treated mice with a […]-supplemented or control diet, and analyzed cells from the peritoneal lavage (FIG. 3E).

[2] = test system: dermal mo-DC and MHC class II+ macrophages; test: Skin mo-DC and macrophage proportions in mice fed I3C-supplemented diet; assay type: in vivo, mouse; settings: supplemented diet versus control diet
From the text: FIG. 4: AhR is involved in mo-DC differentiation in vivo in the mouse. (A-C) Ear skin from individual AhR^-/- mice or WT littermates (A-B), or C57BL/6 mice fed with an experimental diet supplemented or not with indole-3-carbinol […]) (C), was digested to prepare single-cell suspensions. After gating on live CD45^+CD3^-NK1.1^-CD19^-Ly6G^-CD24^- CD11b^+ cells, cells were separated into 5 subsets based on the expression of Ly6C, CD64, MHC II and CCR2. (A) One representative AhR^-/- and WT mouse is shown. (B-C) Proportions of monocytes, early mo-DC, mo-DC, MHC II^+ macrophages and resident MHC II^- macrophages among Ly6C^+ or CD64^+ cells. Each symbol represents an individual mouse (B n=9 in 2 independent experiments, C n=12 in 2 independent experiments).*p<0.05, **p<0.01. (D-E) Cells from the peritoneal lavage were analyzed by flow cytometry. After gating on live CD115^+CD11b^+ cells, cells were separated into MHCII^+CD226^+ cells and ICAM2^+MHCII^- cells. (D) Cell-sorted cells were analyzed after cytospin and Giemsa/May-Grünwald staining. Bar=10 μm. Representative of 2 independent experiments. (E) C57BL/6 mice fed with an experimental diet supplemented or not with […], and treated or not with a cocktail of antibiotics. […] To address the physiological relevance of our findings, we analyzed the role of AhR in mo-DC and mo-Mac differentiation in vivo in the mouse. […]

[3] = test system: Treg cells; test: Induction of functional Treg cells upon administration
From the text: The impact of a given AHR agonist on Treg cells may be estimated by exposing purified T cells (typically CD4^+ T cells) in vitro with the said agonist. Treg cells are characterized by expression of the transcription factor Foxp3.

[4] = test system: CD14+ monocytes; test: Human CD14+ monocyte differentiation into mo-DC versus mo-Mac (culture with M-CSF, IL-4 and TNF-α, flow cytometry at day 5); assay type: cell-based; settings: monocytes cultured with M-CSF, IL-4 and TNF-α for 5 days, various doses of compound
Procedure: (§1) FIG. 2: AHR is a molecular switch for mo-DC versus mo-Mac differentiation. (A-B) CD14^+ monocytes were infected at day 0 with lentivirus containing sh RNA against AHR, or control sh RNA. After 5 days of culture, cells were analyzed by Immuno Blot (A) or by flow cytometry (B). (A) Silencing quantified based on Immuno Blot stainings. (B) Proportions of DC and macrophages in the culture at day 5. Each symbol represents an individual donor (n=6 in 3 independent experiments). *p<0.05. (C) Monocytes were cultured with MCSF, IL-4 and TNF-α for 5 days, in the presence of various concentrations of FICZ (AHR agonist) or SR1 (AHR inhibitor). Proportions of DC and macrophages at day 5. […] (D-E) CD14^+ monocytes were analyzed directly after isolation, or were cultured for 3h in medium alone or with various combinations of MCSF, IL-4, TNF-α, FICZ or SRI. (D) Relative expression of IRF4 and MAFB measured by RT-qPCR. […] (E) Expression of IRF4 and MAFB at the single cell level was measured by fluorescent in situ hybridization coupled to flow cytometry. […]
FIG. 3: AHR acts on mo-DC differentiation through BLIMP-1. […] PRDM1 expression measured by RT-qPCR. […] Total cells were lyzed at different days and analyzed by Immuno Blot. […] After 5 days of culture, cells were analyzed by Immuno Blot (C) or by flow cytometry (D-E). (C) Silencing quantified based on Immuno Blot stainings. […]

[5] = test system: IRF4 expression in CD14+ monocytes; test: IRF4 and MAFB expression in monocytes after 3 h of culture, RT-qPCR; assay type: cell-based, human; settings: 3 h culture, with IL-4 (FICZ: with IL-4 and TNF-α)
Procedure: as §1
To decipher how AHR shapes monocyte fate, we assessed IRF4 and MAFB expression in monocytes after 3 h of culture with various combinations of M-CSF, IL-4, TNF-α, SR1 and FICZ (FIG. 2D). We also analyzed the expression of CYP1A1, a known direct target of AHR (Stockinger et al., 2014), as a control for AHR activation. […]

Structure (SMILES)	peritoneal mo-DC differentiation in antibiotics-treated mice [1]	MHC class II+ macrophages in the skin [2]	mo-DC in the skin [2]	induction of functional Treg cells [3]	mo-DC development / proportions at day 5 [4]	mo-Mac development / proportions at day 5 [4]	IL-4-induced IRF4 expression [5]
OCc1c[nH]c2ccccc12 [I3C, indole-3-carbinol]	restored mo-DC differentiation in antibiotics-treated mice almost up to normal proportions	decreased	significantly increased	does not induce functional Treg cells			
CC(C)n1cnc2c(NCCc3ccc(O)cc3)nc(-c3csc4ccccc34)nc21 [SR1, stemregenin-1]					decreasing	increased	inhibited
